Source: US11660280B2, “Treatment of drug resistant gliomas” (OKLAHOMA MEDICAL RESEARCH FOUNDATION, priority 2017, dated 2023)
Where a name gives a salt, the structure may show the parent alone.

Experiments:
[1] = test system: MPG; experiment: RT-PCR gene-fold changes in human GBM cells; type: cell-based
Experimental: (§1) Quantification of mRNA by real-time quantitative RT-PCR for HIF-1a, MPG and MGMT. Total RNA from all cell lines with all treatments was purified with an RNeasy Mini Kit (Qiagen), and quantified by spectrophotometry (Nanodrop). cDNA was synthesized using SuperScript IV Reverse Transcriptase Kit (Invitrogen).
(§2) Target gene mRNA was amplified and measured by Bio-Rad CFX96™ Real Time System. Gene expression was determined using the SYBR Select Master Mix (Applied Biosystems). […] The reaction is characterized by the point during cycling when amplification of PCR products is first detected, rather than the amount of PCR product accumulated after a fixed number of cycles. The higher the starting quantity of the template, the earlier a significant increase in fluorescence is observed. The threshold cycle is defined as the fractional cycle number at which fluorescence passes a fixed threshold above the baseline. Fluorescence data were converted into cycle threshold measurements exported to Microsoft Excel. Glyceraldehyde-3-phosphatase dehydrogenase (GAPDH) mRNA expression levels were used as the quantitative internal control. For precise quantification, the mRNA expression level of each sample was normalized using the expression of the GAPDH gene.
(§3) All primers were synthesized by Integrated DNA Technologies. The primers used were: […]
(§4) were used to amplify 603-bp transcripts of MPG [9].

[2] = test system: MGMT; experiment: RT-PCR gene-fold changes in human GBM cells; type: cell-based
Experimental: as §1, §2, §3, §4

[3] = test system: U138 cells; experiment: IC50 TMZ sensitivity (50% growth inhibition, cell counts); type: cell-based; details: Homo sapiens, TMZ alone, 72 hrs
Experimental: (§5) Culture Collection (ATCC; Manassas, VA, USA) (U-138—ATCC (CRL-HTB-16) glioblastoma; LN-18—ATCC (CRL-2610) glioblastoma; LN-229—ATCC (CRL-2611) glioblastoma; and T-98G—ATCC—(CRL-1690). U-251 GBM cells were obtained from Sigma-Aldrich (N#09063001 also known before as U-373 MG (ATCC® HTB-17)). G55 cells were obtained from Dr. Michael Sughrue, who was a resident at Univ. of California San Francisco (originally obtained from C. David James (Department of Neurological Surgery, UCSF, CA, USA), who characterized the cells).
(§6) Cells were cultured in Dulbecco's modified Eagle's medium (DMEM, Gibco BRL, Crand Island, N.Y., USA) supplemented with 10% fetal bovine serum (Gibco) in a standard humidified incubator at 37° C. under 5% CO2.
(§7) IC50 concentrations—Protocol for TMZ sensitivity determination. […] Briefly, cells were plated at 1×10^4 cells per well in 24-well, flat-bottomed plates and incubated with medium for 24 hrs. The cells were subsequently washed twice with medium and incubated further with fresh medium (control) or medium containing 0.1-1,000 μM of TMZ. Per each plate contained growth medium with +/−TMZ there was a plate with medium containing 1 mM OKN. After exposure to the various concentrations of TMZ for 72 hrs, cells were detached by trypsinization and the numbers counted. The experiments were repeated at least 4 times at each concentration.

[4] = test system: G55 cells; experiment: as above; type: cell-based; details: Homo sapiens, 72 h, TMZ alone
Experimental: as §5, §6, §7

[5] = test system: U251 cells; experiment: as above; type: cell-based; details: Homo sapiens, U-251, TMZ alone, 72 hrs
Experimental: as §5, §6, §7

[6] = test system: LN18 cells; experiment: as above; type: cell-based; details: Homo sapiens, LN-18, TMZ alone, 72 hrs
Experimental: as §5, §6, §7

[7] = test system: HIF-1α; experiment: RT-PCR gene-fold changes in human GBM cells; type: cell-based
Experimental: as §1, §2, §3

[8] = test system: MPG; experiment: ELISA protein level in human GBM cell lysates; type: cell-based
Experimental: (§8) ELISA for HIF-1a, MPG and MGMT. Protein expressions were assessed in all six glioma cell lines for all four groups of treatment (cell alone, cells with TMZ, cells with OKN, cells with combined OKN and TMZ). Cells were lysed before assaying. In brief, cells were washed by cold PBS gently, and then detached with trypsin, and collected by centrifugation at 1,000×g for 5 minutes. Then, cells were washed three times in cold PBS, then suspended in fresh lysis buffer. Lysates were centrifuged at 1,500×g for 10 minutes at 2-8° C. to remove cellular debris.
(§9) The assay is based on the sandwich ELISA principle. Each well of the supplied microtiter plate has been pre-coated with a target specific capture antibody. Standards or samples are added to the wells and the target antigen binds to the capture antibody. Unbound Standard or sample is washed away. A biotin-conjugated detection antibody is then added which binds to the captured antigen. Unbound detection antibody is washed away. An Avidin-Horseradish Peroxidase (HRP) conjugate is then added which binds to the biotin. Unbound Avidin-HRP conjugate is washed away. A TMB substrate is then added which reacts with the HRP enzyme resulting in color development. A sulfuric acid stop solution is added to terminate color development reaction and then the optical density (OD) of the well is measured at a wavelength of 450 nm±2 nm. The OD of an unknown sample can then be compared to an OD standard curve generated using known antigen concentrations in order to determine its antigen concentration.
(§10) The antigen concentration determined from ELISA was then normalized to the total protein concentration of each cell lysate in order to have comparison between groups. ELISA Kits for N-Methylpurine DNA Glycosylase (MPG) and for Hypoxia Inducible Factor 1 Alpha (HIF1a) were purchased from CLOUD-CLONE CORP.(CCC) and for Human MGMT from LifeSpan Biosciences, Inc.

[9] = test system: HIF-1α; experiment: ELISA protein level in human GBM cell lysates; type: cell-based
Experimental: as §8, §9, §10

[10] = test system: MGMT; experiment: ELISA protein level in human GBM cell lysates; type: cell-based
Experimental: as §8, §9, §10

[11] = test system: LN229 cells; experiment: IC50 TMZ sensitivity (50% growth inhibition, cell counts); type: cell-based, human; details: TMZ alone
Experimental: as §5, §6, §7

[12] = test system: T98 cells; experiment: as above; type: cell-based, human; details: TMZ alone
Experimental: as §5, §6, §7

[13] = patients; cited from earlier work
[14] = in vivo; cited from earlier work
[15] = test system: C6 gliomas; details: rat C6 glioma, cited from earlier work
[16] = rats; cited from earlier work
[17] = T98 cells (TMZ-resistant), UT 1.00
[18] = U251 cells (TMZ-sensitive), UT 1.00

Cn1nnc2c(C(N)=O)ncn2c1=O [TMZ, Temozolomide, reference compound]
RT-PCR gene-fold change MPG ([1]; G55 cells (TMZ-resistant), UT 1.06): 2.53 fold | RT-PCR gene-fold change MPG ([1]; LN18 cells (TMZ-resistant), UT 1.00): 2.95 fold | RT-PCR gene-fold change MPG ([1]; LN229 cells (TMZ-sensitive), UT 1.10): 1.22 fold | RT-PCR gene-fold change MPG ([1]; T98 cells (TMZ-resistant), UT 1.10): 1.22 fold | RT-PCR gene-fold change MPG ([1]; U138 cells (TMZ-resistant), UT 1.13): 7.14 fold | RT-PCR gene-fold change MPG ([1]; U251 cells (TMZ-sensitive), UT 1.10): 1.11 fold | RT-PCR gene-fold change MGMT ([2]; LN18 cells (TMZ-resistant), UT 1.06): 0.77 fold | RT-PCR gene-fold change MGMT [2, 17]: 1.07 fold | RT-PCR gene-fold change MGMT [2, 18]: 1.32 fold | IC50 [3]: 448 µM | IC50 ([4]; G55 (high) passage): 94.3 µM | IC50 ([4]; G55 (low) passage): 567 µM | IC50 [5]: 176 µM | IC50 [6]: 774 µM | RT-PCR gene-fold change HIF-1α ([7]; G55 cells (TMZ-resistant), UT 1.00): 1.85 fold | RT-PCR gene-fold change HIF-1α ([7]; LN18 cells (TMZ-resistant), UT 1.03): 2.11 fold | RT-PCR gene-fold change HIF-1α ([7]; LN229 cells (TMZ-sensitive), UT 1.00): 1.41 fold | RT-PCR gene-fold change HIF-1α [7, 17]: 1.72 fold | RT-PCR gene-fold change HIF-1α ([7]; U138 cells (TMZ-resistant), UT 1.00): 2.05 fold | RT-PCR gene-fold change HIF-1α [7, 18]: 1.48 fold | ELISA protein level MPG ([8]; G55 cells, UT 1.15): 1.50 ng/mg cell lysate | ELISA protein level MPG ([8]; LN18 cells, UT 2.18): 2.27 ng/mg cell lysate | ELISA protein level MPG ([8]; LN229 cells, UT 2.34): 1.93 ng/mg cell lysate | ELISA protein level MPG ([8]; T98 cells, UT 3.04): 3.82 ng/mg cell lysate | ELISA protein level MPG ([8]; U138 cells, UT 1.30): 1.50 ng/mg cell lysate | ELISA protein level MPG ([8]; U251 cells, UT 2.70): 4.99 ng/mg cell lysate | ELISA protein level HIF-1α ([9]; G55 cells, UT 0.14): 1.08 ng/mg cell lysate | ELISA protein level HIF-1α ([9]; LN18 cells, UT 0 76): 0.83 ng/mg cell lysate | ELISA protein level HIF-1α ([9]; LN229 cells, UT 0.68): 0.74 ng/mg cell lysate | ELISA protein level HIF-1α ([9]; T98 cells, UT 0.42): 0.77 ng/mg cell lysate | ELISA protein level HIF-1α ([9]; U138 cells, UT 0.40): 0.84 ng/mg cell lysate | ELISA protein level HIF-1α ([9]; U251 cells, UT 0.30): 1.41 ng/mg cell lysate | ELISA protein level MGMT ([10]; G55 cells, UT 0.37): 1.19 ng/mg cell lysate | ELISA protein level MGMT ([10]; LN18 cells, UT 1.23): 1.28 ng/mg cell lysate | ELISA protein level MGMT ([10]; LN229 cells, UT 0.67): 0.75 ng/mg cell lysate | ELISA protein level MGMT ([10]; T98 cells, UT 0.62): 1.76 ng/mg cell lysate | ELISA protein level MGMT ([10]; U138 cells, UT 0.77): 0.98 ng/mg cell lysate | ELISA protein level MGMT ([10]; U251 cells, UT 0.92): 1.48 ng/mg cell lysate | IC50 ([11]; Homo sapiens, LN-229, 72 h): 108 µM | IC50 ([11]; 72 hrs): ~100 µM | IC50 ([12]; Homo sapiens, T98, 72 h): 438 µM | IC50 ([12]; 72 hrs): 447 µM | incidence of severe nausea and vomiting (each) [13]: around 4%

O=NN(CCCl)C(=O)NC1CCCCC1 [Lomustine, 1-(2-chloroethyl)-3-cyclohexyl-1-nitrosourea]
crossing of the blood brain barrier [14]: crosses the blood brain barrier

CC[C@]1(O)C[C@H]2CN(CCc3c([nH]c4ccccc34)[C@@](C(=O)OC)(c3cc4c(cc3OC)N(C=O)[C@H]3[C@@](O)(C(=O)OC)[C@H](OC(C)=O)[C@]5(CC)C=CCN6CC[C@]43[C@@H]65)C2)C1 [Vincristine, vincaleukoblastine, a 22-oxo-, sulfate (1:1) (salt)]
crossing of the blood brain barrier [14]: does not appear to cross the blood brain barrier

CC(C)(C)[N+]([O-])=Cc1ccccc1 [PBN, phenyl N-tert-butyl nitrone]
tumors with reduced tumor growth ([15]; post-treatment): ~50% | tumors with reduced growth ([15]; pre-treatment): > 80% | crossing of the blood brain barrier [14]: easily penetrate the BBB | half-life [16]: about 132 minutes
